# According to article PMC10460844, “Real‐Time Monitoring of Multitarget Antimicrobial Mechanisms of Peptoids Using Label‐Free Imaging with Optical Diffraction Tomography” (Advanced Science, 2023):
# Where a name gives a salt, the structure may show the parent alone. Square brackets hold non-standard residues; d marks the D form. Peptide text beside a SMILES is read from it. Gly(N(CH2)2(3-indolyl)) = O=C(O)CNCCc1c[nH]c2ccccc12; Nspe = C[C@H](NCC(=O)O)c1ccccc1; Nlys = NCCCCNCC(=O)O
# Tests used:
# [1] = tested on: S. aureus ATCC 25923; type: cell-based, Staphylococcus aureus; conditions: ATCC 25923
# Method: (§1) The antibacterial activity of the peptoids was evaluated against gram‐positive (Staphylococcus aureus, ATCC 25 923) and gram‐negative (Escherichia coli, ATCC 25 922) bacteria. […] The MIC of each peptoid was determined using a broth dilution assay. For each assay, the primary culture of either S. aureus or E. coli was grown overnight in cation‐adjusted Mueller Hinton broth 2 (MHB2) media at 37 °C with shaking. A secondary culture was prepared the next day, grown for 3–4 h, and then diluted in MHB2 media with a final concentration of 0.001% acetic acid and 0.02% bovine serum albumin to obtain a calculated optical density (OD) of 0.001. This corresponded to ≈2–5 × 10^5 colony‐forming units (CFU mL^−1) of bacteria. Using 96‐well polypropylene plates (Eppendorf, Hamburg, Germany), 100 µL of 2–5 × 10^5 CFU mL^−1 bacteria were added in triplicate for each peptoid. Each peptoid was assayed at six different concentrations in two‐fold serial dilutions. The maximum peptoid concentration was 25 µM. […] The MIC value determination was performed in triplicate. The MIC was defined as the lowest peptoid concentration that prevented turbidity during visual inspection.
# [2] = tested on: rat erythrocytes; experiment: Hemolysis assay; type: cell-based; conditions: for HC10 / HC50: red cells of rat
# How it was run: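 Washed Sprague-Dawley rat erythrocytes (10% suspension in PBS pH 7.4) mixed with peptoids (0–100 µM), 60 min at 37 °C; supernatant A540 expressed as % of 1% Triton X-100 lysis. HC10/HC50 are concentrations giving 10%/50% hemolysis; Hmax is hemolysis at 100 µM.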
# [3] = tested on: E. coli ATCC 25922; type: cell-based, Escherichia coli; conditions: ATCC 25922
# Method: as §1
Compound,MIC S. aureus ATCC25923 [1] [µM],Hmax (100 µM) [2] [%],HC10 [2] [µM],HC50 [2] [µM],MIC E. coli ATCC25922 [3] [µM]
C[C@@H](c1ccccc1)N(CC(N)=O)C(=O)CN(C(=O)CN(CCCCN)C(=O)CN(C(=O)CN(CCc1c[nH]c2ccccc12)C(=O)CN(CCCCN)C(=O)CN(CCc1c[nH]c2ccccc12)C(=O)CN(C(=O)CN(CCCCN)C(=O)CN(C(=O)CN(C(=O)CNCCCCN)[C@@H](C)c1ccccc1)[C@@H](C)c1ccccc1)[C@@H](C)c1ccccc1)[C@@H](C)c1ccccc1)[C@@H](C)c1ccccc1 [15-AcOH],3.1,34.1±1.1,39.2,> 100,6.3
C[C@@H](c1ccccc1)N(CC(N)=O)C(=O)CN(C(=O)CN(CCCCN)C(=O)CN(C(=O)CN(C(=O)CN(CCCCN)C(=O)CN(C(=O)CN(C(=O)CN(CCCCN)C(=O)CN(CCc1c[nH]c2ccccc12)C(=O)CN(C(=O)CNCCCCN)[C@@H](C)c1ccccc1)[C@@H](C)c1ccccc1)[C@@H](C)c1ccccc1)[C@@H](C)c1ccccc1)[C@@H](C)c1ccccc1)[C@@H](C)c1ccccc1 [10-HCl],3.1,81.5±7.4,15.3,37.8,6.3
C[C@@H](c1ccccc1)N(CC(N)=O)C(=O)CN(CCCCN)C(=O)CN(CCCCN)C(=O)CN(C(=O)CN(C(=O)CN(CCCCN)C(=O)CN(C(=O)CN(C(=O)CN(CCCCN)C(=O)CN(CCc1c[nH]c2ccccc12)C(=O)CN(CCc1c[nH]c2ccccc12)C(=O)CNCCCCN)[C@@H](C)c1ccccc1)[C@@H](C)c1ccccc1)[C@@H](C)c1ccccc1)[C@@H](C)c1ccccc1 [32-HCl],6.3,8.7±0.6,> 100,> 100,6.3
C[C@@H](c1ccccc1)N(CC(=O)N(CCCCN)CC(=O)N(CC(=O)N(CC(=O)N(CCCCN)CC(=O)N(CC(=O)N(CC(=O)N(CCCCN)CC(N)=O)[C@@H](C)c1ccccc1)[C@@H](C)c1ccccc1)[C@@H](C)c1ccccc1)[C@@H](C)c1ccccc1)C(=O)CN(C(=O)CN(CCCCN)C(=O)CN(CCc1c[nH]c2ccccc12)C(=O)CNCCc1c[nH]c2ccccc12)[C@@H](C)c1ccccc1 [37-HCl] (H-[Gly(N(CH2)2(3-indolyl))][Gly(N(CH2)2(3-indolyl))][Nlys][Nspe][Nspe][Nlys][Nspe][Nspe][Nlys][Nspe][Nspe][Nlys]-NH2),3.1,86.6±5.7,14.4,56.5,6.3
C[C@@H](c1ccccc1)N(CC(=O)N(CCCCN)CC(=O)N(CC(=O)N(CC(=O)N(CCCCN)CC(=O)N(CC(=O)N(CC(=O)N(CCCCN)CC(=O)N(CCc1c[nH]c2ccccc12)CC(=O)N(CCc1c[nH]c2ccccc12)CC(N)=O)[C@@H](C)c1ccccc1)[C@@H](C)c1ccccc1)[C@@H](C)c1ccccc1)[C@@H](C)c1ccccc1)C(=O)CN(C(=O)CNCCCCN)[C@@H](C)c1ccccc1 [11-HCl] (H-[Nlys][Nspe][Nspe][Nlys][Nspe][Nspe][Nlys][Nspe][Nspe][Nlys][Gly(N(CH2)2(3-indolyl))][Gly(N(CH2)2(3-indolyl))]-NH2),3.1,113.9±1.7,10.1,21.5,3.1
C[C@@H](c1ccccc1)N(CC(N)=O)C(=O)CN(CCCCN)C(=O)CN(CCCCN)C(=O)CN(C(=O)CN(C(=O)CN(CCCCN)C(=O)CN(C(=O)CN(C(=O)CN(CCCCN)C(=O)CN(CCc1c[nH]c2ccccc12)C(=O)CN(CCc1c[nH]c2ccccc12)C(=O)CNCCCCN)[C@@H](C)c1ccccc1)[C@@H](C)c1ccccc1)[C@@H](C)c1ccccc1)[C@@H](C)c1ccccc1 [32-AcOH],6.3,13.8±1.1,83.0,> 100,6.3
C[C@@H](c1ccccc1)N(CC(=O)N(CCCCN)CC(=O)N(CCc1c[nH]c2ccccc12)CC(=O)N(CCc1c[nH]c2ccccc12)CC(N)=O)C(=O)CN(CCCCN)C(=O)CN(CCCCN)C(=O)CN(C(=O)CN(C(=O)CN(CCCCN)C(=O)CN(C(=O)CN(C(=O)CNCCCCN)[C@@H](C)c1ccccc1)[C@@H](C)c1ccccc1)[C@@H](C)c1ccccc1)[C@@H](C)c1ccccc1 [29-AcOH] (H-[Nlys][Nspe][Nspe][Nlys][Nspe][Nspe][Nlys][Nlys][Nspe][Nlys][Gly(N(CH2)2(3-indolyl))][Gly(N(CH2)2(3-indolyl))]-NH2),12.5,5.2±0.2,> 100,> 100,6.3
C[C@@H](c1ccccc1)N(CC(=O)N(CCCCN)CC(=O)N(CC(=O)N(CC(=O)N(CCCCN)CC(=O)N(CC(=O)N(CC(=O)N(CCCCN)CC(=O)N(CCc1c[nH]c2ccccc12)CC(=O)N(CCc1c[nH]c2ccccc12)CC(N)=O)[C@@H](C)c1ccccc1)[C@@H](C)c1ccccc1)[C@@H](C)c1ccccc1)[C@@H](C)c1ccccc1)C(=O)CN(C(=O)CNCCCCN)[C@@H](C)c1ccccc1 [11-AcOH] (H-[Nlys][Nspe][Nspe][Nlys][Nspe][Nspe][Nlys][Nspe][Nspe][Nlys][Gly(N(CH2)2(3-indolyl))][Gly(N(CH2)2(3-indolyl))]-NH2),1.6,110.4±0.2,8.7,29.7,3.1
C[C@@H](c1ccccc1)N(CC(N)=O)C(=O)CN(C(=O)CN(CCCCN)C(=O)CN(C(=O)CN(CCc1c[nH]c2ccccc12)C(=O)CN(CCCCN)C(=O)CN(CCc1c[nH]c2ccccc12)C(=O)CN(C(=O)CN(CCCCN)C(=O)CN(C(=O)CN(C(=O)CNCCCCN)[C@@H](C)c1ccccc1)[C@@H](C)c1ccccc1)[C@@H](C)c1ccccc1)[C@@H](C)c1ccccc1)[C@@H](C)c1ccccc1 [15-HCl],3.1,33.4±9.7,50.4,> 100,6.3
C[C@@H](c1ccccc1)N(CC(=O)N(CCCCN)CC(=O)N(CCc1c[nH]c2ccccc12)CC(=O)N(CCc1c[nH]c2ccccc12)CC(N)=O)C(=O)CN(CCCCN)C(=O)CN(CCCCN)C(=O)CN(C(=O)CN(C(=O)CN(CCCCN)C(=O)CN(C(=O)CN(C(=O)CNCCCCN)[C@@H](C)c1ccccc1)[C@@H](C)c1ccccc1)[C@@H](C)c1ccccc1)[C@@H](C)c1ccccc1 [29-HCl] (H-[Nlys][Nspe][Nspe][Nlys][Nspe][Nspe][Nlys][Nlys][Nspe][Nlys][Gly(N(CH2)2(3-indolyl))][Gly(N(CH2)2(3-indolyl))]-NH2),12.5,4.3±0.3,> 100,> 100,12.5
C[C@@H](c1ccccc1)N(CC(N)=O)C(=O)CN(C(=O)CN(CCCCN)C(=O)CN(C(=O)CN(C(=O)CN(CCCCN)C(=O)CN(C(=O)CN(C(=O)CN(CCCCN)C(=O)CN(CCc1c[nH]c2ccccc12)C(=O)CN(CCc1c[nH]c2ccccc12)C(=O)CNCCCCN)[C@@H](C)c1ccccc1)[C@@H](C)c1ccccc1)[C@@H](C)c1ccccc1)[C@@H](C)c1ccccc1)[C@@H](C)c1ccccc1 [14-HCl],3.1,75.3±5.0,19.2,68.2,3.1
C[C@@H](c1ccccc1)N(CC(N)=O)C(=O)CN(C(=O)CN(CCCCN)C(=O)CN(C(=O)CN(C(=O)CN(CCCCN)C(=O)CN(C(=O)CN(C(=O)CN(CCCCN)C(=O)CN(CCc1c[nH]c2ccccc12)C(=O)CN(CCc1c[nH]c2ccccc12)C(=O)CNCCCCN)[C@@H](C)c1ccccc1)[C@@H](C)c1ccccc1)[C@@H](C)c1ccccc1)[C@@H](C)c1ccccc1)[C@@H](C)c1ccccc1 [14-AcOH],1.6,100.7±17.2,14.9,51.8,3.1
